# Source: paper PMC9090415, “Discovery of small molecule inhibitors of Plasmodium falciparum apicoplast DNA polymerase” (Journal of Enzyme Inhibition and Medicinal Chemistry, 2022)
# Biological target: P. falciparum apicoplast DNA polymerase (Pf-apPOL) (Plasmodium falciparum, UniProt Q8ILY1)
# Experiment: Fluorescence-based high-throughput DNA polymerase assay (molecular beacon), primary screen and dose-response
# Format: biochemical
# Method: The HT assay employs a molecular beacon, a stem-loop DNA template with a Cy3 dye and the Black Hole Quencher on the 3′ and 5′ ends of the DNA, respectively. Pf-apPOL concentration is based on a calculated absorptivity of ε280 = 56750 M^−1 cm^−1. Reactions were carried out at 25 °C, using Corning 3575 […] (well-volume, 20 µL). Assays testing for compound inhibition composed of reaction buffer (pH 7.9 in 50 mM potassium acetate, 20 mM Tris-acetate and 10 mM magnesium acetate), Pf-apPOL (20 nM), DNA substrate (20 nM), dNTPs (6 µM), and compound (10 µM in DMSO). The DNA and nucleotide substrates (dNTPs) were at concentrations of 20 nM and 6 µM, respectively, in the assay. Pf-apPOL was incubated in the reaction buffer with dNTPs and the compound of interest (10 µM, in the assay) at 25 °C for 10 min. The DNA substrate was then added and the reaction was allowed to proceed for 90 min at 25 °C.
# Each assay plate contained 16 negative controls (no Pf-apPOL, DMSO present) and 16 positive controls (Pf-apPOL present, no DMSO). The fluorescence of each well was determined using a BioTek Synergy Neo fluorescence plate reader using excitation and emission wavelengths of 555 and 570 nm, respectively.
# In the above, Min is the average of fluorescence emission of the negative controls (substrate only), Max the average fluorescence emission from the positive controls (enzyme + substrate), and Test the emission from the assays in the presence of compounds (enzyme + compound + substrates). […] […] The IC50 of each compound was determined using Equation (2): (2) IC50= Vmax/(1+ (I/IC50)^n)
# In the above, n measures cooperativity, with n > 1 indicating synergistic binding of more than a single molecule of the compound.
# To identify apPOL inhibitors we utilised our previously developed high-throughput DNA polymerase assay. The HT assay is based on a molecular beacon DNA template that forms a stem-loop with a Cy3 dye and the Black Hole Quencher on the 3′ and 5′ ends of the DNA, respectively. DNA polymerase activity extends an annealed primer through the stem region, displacing the fluorophore from the quencher, thereby increasing its fluorescence (Figure 1(A)). The assay accurately recapitulates the kinetic behaviour of apPOL, as measured through more conventional low-throughput gel-based assays. The Z′ factor for the assay described here was 0.9 across all plates (data not shown).
# Figure 1. High-throughput screening. (A) The fluorescent-based DNA polymerase assay used to screen the compound libraries. The DNA template strand is a hairpin loop with a primer annealed to the loop. The 3’ end of the primer is 11 bases away from the 6 bp duplex. Strand displacement activity of the DNA polymerase separates the Cy3 dye from the Black hole quencher leading to an increase in fluorescent signal. (B) The high-throughput assay workflow. The DNA polymerase is incubated with […] compound for 10 min prior to addition of the hairpin substrate. The reaction is quenched at 3 different time points and the fluorescent signal is measured and % inhibition is determined using the provided equation.
# [1] = DRC-1; concentration 80 (unit not given); 10'
# [2] = primary screen value of the 186 hits; unit not given; 90 min, 10 µM
# [3] = primary screen value; head prints only 'DNA Pol'; 90 min, 10 µM
# P. falciparum apicoplast DNA polymerase (Pf-apPOL), sequence (Q8ILY1 entry or part of it): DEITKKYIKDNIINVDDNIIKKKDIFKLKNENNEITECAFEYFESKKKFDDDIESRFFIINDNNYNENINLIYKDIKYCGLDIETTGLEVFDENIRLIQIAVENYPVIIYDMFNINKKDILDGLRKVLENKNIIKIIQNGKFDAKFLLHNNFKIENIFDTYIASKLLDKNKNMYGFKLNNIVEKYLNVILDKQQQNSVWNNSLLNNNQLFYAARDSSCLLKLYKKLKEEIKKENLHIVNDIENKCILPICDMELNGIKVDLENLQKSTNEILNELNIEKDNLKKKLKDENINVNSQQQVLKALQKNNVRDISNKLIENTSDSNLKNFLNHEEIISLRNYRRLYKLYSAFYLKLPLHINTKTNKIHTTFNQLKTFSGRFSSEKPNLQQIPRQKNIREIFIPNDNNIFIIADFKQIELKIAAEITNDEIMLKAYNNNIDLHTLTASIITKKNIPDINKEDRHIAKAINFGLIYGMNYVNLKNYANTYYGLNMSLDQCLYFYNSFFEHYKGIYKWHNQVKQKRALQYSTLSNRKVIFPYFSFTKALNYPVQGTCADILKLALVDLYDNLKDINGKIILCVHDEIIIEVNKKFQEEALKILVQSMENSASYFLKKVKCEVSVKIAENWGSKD
smiles,measurement,setting,value
Oc1cccnc1/N=C/c1cc(I)cc(I)c1O [KU0073720],% inhibition Apo pol 10',DRC-1; concentration 2.5; 10',24.1498%
same,% inhibition Apol 90',DRC-1; concentration 2.5; 90',12.6325%
same,% inhibition apPOL 180',DRC-1; concentration 2.5; 180',7.269%
same,% inhibition Apo pol 10',DRC-1; concentration 5; 10',35.1256%
same,% inhibition Apol 90',DRC-1; concentration 5; 90',18.9546%
same,% inhibition apPOL 180',DRC-1; concentration 5; 180',7.696%
same,% inhibition Apo pol 10',DRC-1; concentration 10; 10',54.1581%
same,% inhibition Apol 90',DRC-1; concentration 10; 90',35.5541%
same,% inhibition apPOL 180',DRC-1; concentration 10; 180',22.0989%
same,% inhibition Apo pol 10',DRC-1; concentration 20; 10',82.6757%
same,% inhibition Apol 90',DRC-1; concentration 20; 90',72.4882%
same,% inhibition apPOL 180',DRC-1; concentration 20; 180',62.032%
same,% inhibition Apo pol 10',DRC-1; concentration 40; 10',88.0061%
same,% inhibition Apol 90',DRC-1; concentration 40; 90',85.8588%
same,% inhibition apPOL 180',DRC-1; concentration 40; 180',82.0572%
same,% inhibition Apo pol 10',[1],86.1265%
same,% inhibition Apol 90',DRC-1; concentration 80; 90',87.3428%
same,% inhibition apPOL 180',DRC-1; concentration 80; 180',87.5745%
same,% inhibition Apo pol 5',DRC-2; 5'; concentration 40,63%
same,% inhibition Apol 40',DRC-2; 40'; concentration 20,63%
same,% inhibition Apo pol 5',DRC-2; concentration 2.5; 5',26%
same,% inhibition Apol 40',DRC-2; concentration 2.5; 40',24%
same,% inhibition ApPOL 90',DRC-2; concentration 2.5; 90',22%
same,% inhibition apPOL 180',DRC-2; concentration 2.5; 180',15%
same,% inhibition Apo pol 5',DRC-2; concentration 5; 5',36%
same,% inhibition Apol 40',DRC-2; concentration 5; 40',33%
same,% inhibition ApPOL 90',DRC-2; concentration 5; 90',28%
same,% inhibition apPOL 180',DRC-2; concentration 5; 180',17%
same,% inhibition Apo pol 5',DRC-2; concentration 10; 5',51%
same,% inhibition Apol 40',DRC-2; concentration 10; 40',52%
same,% inhibition ApPOL 90',DRC-2; concentration 10; 90',49%
same,% inhibition apPOL 180',DRC-2; concentration 10; 180',37%
same,% inhibition Apo pol 5',DRC-2; concentration 20; 5',57%
same,% inhibition Apol 40',DRC-2; concentration 20; 40',63%
same,% inhibition ApPOL 90',DRC-2; concentration 20; 90',62%
same,% inhibition apPOL 180',DRC-2; concentration 20; 180',54%
same,% inhibition Apo pol 5',DRC-2; concentration 40; 5',63%
same,% inhibition Apol 40',DRC-2; concentration 40; 40',73%
same,% inhibition ApPOL 90',DRC-2; concentration 40; 90',75%
same,% inhibition apPOL 180',DRC-2; concentration 40; 180',74%
same,% inhibition Apo pol 5',DRC-2; concentration 80; 5',58%
same,% inhibition Apol 40',DRC-2; concentration 80; 40',72%
same,% inhibition ApPOL 90',DRC-2; concentration 80; 90',76%
same,% inhibition apPOL 180',DRC-2; concentration 80; 180',77%
same,DNA Pol,[2],46
same,DNA Pol,[3],46
Cc1ccc(C2=N/C(=C\c3ccc(I)o3)C(=O)O2)cc1[N+](=O)[O-] [KU0073890],% inhibition Apo pol 10',DRC-1; concentration 2.5; 10',15.7556%
same,% inhibition Apol 90',DRC-1; concentration 2.5; 90',9.731%
same,% inhibition apPOL 180',DRC-1; concentration 2.5; 180',6.694%
same,% inhibition Apo pol 10',DRC-1; concentration 5; 10',16.0721%
same,% inhibition Apol 90',DRC-1; concentration 5; 90',7.063%
same,% inhibition apPOL 180',DRC-1; concentration 5; 180',1.084%
same,% inhibition Apo pol 10',DRC-1; concentration 10; 10',45.023%
same,% inhibition Apol 90',DRC-1; concentration 10; 90',27.25%
same,% inhibition apPOL 180',DRC-1; concentration 10; 180',14.7198%
same,% inhibition Apo pol 10',DRC-1; concentration 20; 10',76.1272%
same,% inhibition Apol 90',DRC-1; concentration 20; 90',60.0756%
same,% inhibition apPOL 180',DRC-1; concentration 20; 180',43.2832%
same,% inhibition Apo pol 10',DRC-1; concentration 40; 10',86.9883%
same,% inhibition Apol 90',DRC-1; concentration 40; 90',86.9491%
same,% inhibition apPOL 180',DRC-1; concentration 40; 180',82.7565%
same,% inhibition Apo pol 10',[1],80.4424%
same,% inhibition Apol 90',DRC-1; concentration 80; 90',89.2693%
same,% inhibition apPOL 180',DRC-1; concentration 80; 180',91.2118%
same,% inhibition Apo pol 5',DRC-2; 5'; concentration 2.5,19%
same,% inhibition Apol 40',DRC-2; 40'; concentration 2.5,19%
same,% inhibition ApPOL 90',DRC-2; 90'; concentration 2.5,17%
same,% inhibition ApPOL 90',DRC-2; 90'; concentration 40,75%
same,% inhibition ApPOL 90',DRC-2; 90'; concentration 80,75%
same,% inhibition apPOL 180',DRC-2; 180'; concentration 5,17%
same,% inhibition Apo pol 5',DRC-2; concentration 2.5; 5',19%
same,% inhibition Apol 40',DRC-2; concentration 2.5; 40',19%
same,% inhibition ApPOL 90',DRC-2; concentration 2.5; 90',17%
same,% inhibition apPOL 180',DRC-2; concentration 2.5; 180',11%
same,% inhibition Apo pol 5',DRC-2; concentration 5; 5',35%
same,% inhibition Apol 40',DRC-2; concentration 5; 40',32%
same,% inhibition ApPOL 90',DRC-2; concentration 5; 90',29%
same,% inhibition apPOL 180',DRC-2; concentration 5; 180',17%
same,% inhibition Apo pol 5',DRC-2; concentration 10; 5',44%
same,% inhibition Apol 40',DRC-2; concentration 10; 40',42%
same,% inhibition ApPOL 90',DRC-2; concentration 10; 90',38%
same,% inhibition apPOL 180',DRC-2; concentration 10; 180',25%
same,% inhibition Apo pol 5',DRC-2; concentration 20; 5',55%
same,% inhibition Apol 40',DRC-2; concentration 20; 40',62%
same,% inhibition ApPOL 90',DRC-2; concentration 20; 90',60%
same,% inhibition apPOL 180',DRC-2; concentration 20; 180',51%
same,% inhibition Apo pol 5',DRC-2; concentration 40; 5',58%
same,% inhibition Apol 40',DRC-2; concentration 40; 40',73%
same,% inhibition ApPOL 90',DRC-2; concentration 40; 90',75%
same,% inhibition apPOL 180',DRC-2; concentration 40; 180',77%
same,% inhibition Apo pol 5',DRC-2; concentration 80; 5',49%
same,% inhibition Apol 40',DRC-2; concentration 80; 40',70%
same,% inhibition ApPOL 90',DRC-2; concentration 80; 90',75%
same,% inhibition apPOL 180',DRC-2; concentration 80; 180',80%
same,DNA Pol,[2],42
same,DNA Pol,[3],42
